Read-outs that look alike come from different tables or passages of the source.
Columns and labels:
[1] = system: PC-3 (prostate adenocarcinoma); settings: literature value, same experimental conditions; cited from earlier work
[2] = system: HT-29 (colorectal adenocarcinoma); assay: Sulforhodamine B in vitro growth inhibition assay, HT-29; assay type: cell-based, human; settings: for Selectivity Index (SI) MCF-10/HT-29: IC50 in non-cancerogenic cell line / IC50 in cancer cell line; for IC50: Homo sapiens, HT-29, sulforhodamine B assay, 72 h of treatment, IC50 ± SD
Method: (§1) For this purpose, a colorimetric sulforhodamine B assay was performed to quantify the cytotoxic effect through their respective IC50 values. Each compound’s serial dilutions (12.5, 25, 50, and 100 µM) were evaluated in triplicate. In our study, the human cancer cell lines used were MCF-7 (breast adenocarcinoma); HT-29 (colorectal adenocarcinoma); PC-3 (prostate adenocarcinoma); and MCF-10 control cells (normal breast epithelium). For comparative purposes, the literature IC50 values of daunorubicin and 5-fluorouracil (5-FU), measured in the same cell lines and under the same experimental conditions, were included. Similarly, drimenol (1) was included for comparative purposes.
(§2) The sulforhodamine B assay was used. Briefly, the cells were set up at 5 × 10^3 cells per well of a 96-well microplate for 18 h. Cells were incubated at 37 °C in a humidified 5% CO2/95% air mixture and treated with the compounds at different concentrations for 72 h. At the end of drug exposure, cells were fixed with 50% trichloroacetic acid at 4 °C. After washing with distilled water, cells were stained with 0.1% sulforhodamine B, dissolved in 1% acetic acid (50 μL/well) for 30 min, and, subsequently, washed with 1% acetic acid to remove the unbound stain. The protein-bound stain was solubilized with 100 μL of 10 mM unbuffered Tris base, and the cell density was determined using a […] (wavelength 540 nm). Results are expressed as IC50 values (μM) ± SD.

[3] = system: PC-3 (prostate adenocarcinoma); assay: Sulforhodamine B in vitro growth inhibition assay, PC-3; assay type: cell-based, human; settings: for Selectivity Index (SI) MCF-10/PC-3: IC50 in non-cancerogenic cell line / IC50 in cancer cell line; for IC50: Homo sapiens, sulforhodamine B assay, 72 h of treatment, IC50 ± SD
Method: as §1, §2

[4] = system: MCF-7 (breast adenocarcinoma); settings: cited from earlier work; for IC50: literature value, same experimental conditions
[5] = system: HT-29 (colorectal adenocarcinoma); design: method as in PMID 25412045; settings: literature value, same experimental conditions; cited from earlier work
[6] = system: MCF-7 (breast adenocarcinoma); assay: Sulforhodamine B in vitro growth inhibition assay, MCF-7; assay type: cell-based, human; settings: for Selectivity Index (SI) MCF-10/MCF-7: IC50 in non-cancerogenic cell line / IC50 in cancer cell line; for IC50: Homo sapiens, MCF7, sulforhodamine B assay, 72 h of treatment, IC50 ± SD
Method: as §1, §2

[7] = system: MCF-10 control cells (normal breast epithelium); settings: literature value; cited from earlier work
[8] = system: MCF-10 control cells (normal breast epithelium); assay: Sulforhodamine B in vitro growth inhibition assay, MCF-10 control cells; assay type: cell-based; settings: Homo sapiens, MCF10, 72 h of treatment, IC50 ± SD, non-tumoral cells
Method: as §1, §2

[9] = system: caspases 3 and 7 on MCF-7 cells; assay: Caspase-Glo 3/7 assay; assay type: cell-based, human; settings: 50 μM, 24 h
Method: To determine the cell death type induced by the most promising aryl-drimane esters, we evaluated their capacity to induce apoptosis through the activation of caspases 3 and 7 on MCF-7 cells. For this purpose, 6a, 6e, 6f, 8c, 8f, and 8g were incubated for 24 h on MCF-7 cells at a concentration of 50 μM, close to the IC50 values for cytotoxicity in most compounds. […] In summary, these drimane derivatives induced apoptosis in the MCF-7 cell line, showing a potential antitumoral effect.
The activity of caspase 3/7 in treated MCF-7 cells was determined using a Caspase-Glo-3/7 Assay kit (Promega, UK—Cat. No G8090). The caspase-Glo 3/7 assay is a homogenous, luminescent assay that measures caspase-3 and -7 activities, both key-players in apoptosis. […] Luminescence was proportional to the amount of caspase present. MCF-7 cells (1 × 10^4 cells per well) were grown in a 96-well white plate and were allowed to adhere overnight. The cells were then treated for 24 h with the synthesized compounds (50 µM), with the inclusion of a blank as a control. After treatment, the Caspase-Glo® 3/7 was prepared according to the manufacturer’s guidelines. Briefly, 100 μL of Caspase-Glo 3/7 reagent was added to 100 μL of culture medium containing the cells previously treated in each well. The content was mixed gently by placing the plate on a shaker for 30 s, and the plate was incubated at room temperature in the dark for 1 h before luminescence was read on a luminometer (Berthold Sirius Single Tube Luminometer, Pforzheim, Germany). Fold change in caspase activity was obtained by first subtracting the luminescence value for the blank well from every other value, and then, expressing the average luminescence of each treatment as a fold change with respect to the average luminescence of the negative control.

| Compound | IC50 [2] [µM] | IC50 [3] [µM] | IC50 [6] [µM] | melting point [°C] | IC50 [1] [µM] | Selectivity Index (SI) MCF-10/HT-29 [2] | Selectivity Index (SI) MCF-10/PC-3 [3] | IC50 [4] [µM] | IC50 [5] [µM] | Selectivity Index (SI) MCF-10/MCF-7 [6] | IC50 [7] [µM] | IC50 [8] [µM] | caspases-3/7 activity over the control [9] | cytotoxicity ([4]; two cell lines, ref Montenegro et al.) |
| --- | --- | --- | --- | --- | --- | --- | --- | --- | --- | --- | --- | --- | --- | --- |
| O=c1[nH]cc(F)c(=O)[nH]1 [5-FU, 5-fluorouracil] | – | – | – | – | 16.4 ± 0.6 | 0.2 | 0.03 | 22.3 ± 0.2 | 2.9 ± 0.7 | 0.02 | < 0.5 | – | – | – |
| COc1cc(C)cc(OC(=O)C2=C(C)CCC3C(C)(C)CCC[C@]23C)c1 (stereo partly drawn) [6b, 3-Methoxy-5-methylphenyl-(8aS)-2,5,5,8a-tetramethyl-3,4,4a,5,6,7,8,8a-octahydronaphthalene-1-carboxylate] | > 100 | > 100 | > 100 | – | – | – | – | – | – | – | – | 67.2 ± 15.3 | – | – |
| COC(=O)c1c(C)cc(OC(=O)C2=C(C)CCC3C(C)(C)CCC[C@]23C)cc1O (stereo partly drawn) [6c, 3-Hydroxy-4-(methoxycarbonyl)-5-methylphenyl-(8aS)-2,5,5,8a-tetramethyl-3,4,4a,5,6,7,8,8a-octahydronaphthalene-1-carboxylate] | > 100 | > 100 | > 100 | 124 | – | – | – | – | – | – | – | > 100 | – | – |
| COC(=O)c1c(C)cc(OC(=O)C2=C(C)CCC3C(C)(C)CCC[C@]23C)c(C)c1O (stereo partly drawn) [6d, 3-Hydroxy-4-(methoxycarbonyl)-2,5-dimethylphenyl-(8aS)-2,5,5,8a-tetramethyl-3,4,4a,5,6,7,8,8a-octahydronaphthalene-1-carboxylate] | > 100 | > 100 | > 100 | 128 | – | – | – | – | – | – | – | > 100 | – | – |
| COc1cc(OC(=O)C2=C(C)CCC3C(C)(C)CCC[C@]23C)ccc1C=O (stereo partly drawn) [6e, 4-Formyl-3-methoxyphenyl-(8aS)-2,5,5,8a-tetramethyl-3,4,4a,5,6,7,8,8a-octahydronaphthalene-1-carboxylate] | 38.1 ± 2 | 52.9 ± 8.2 | 38.3 ± 2.6 | – | – | 1.3 | 0.9 | – | – | 1.3 | – | 50 ± 8.9 | two-fold | – |
| COc1cc(C=O)ccc1OC(=O)C1=C(C)CCC2C(C)(C)CCC[C@]12C (stereo partly drawn) [6f, 4-Formyl-2-methoxyphenyl-(8aS)-2,5,5,8a-tetramethyl-3,4,4a,5,6,7,8,8a-octahydronaphthalene-1-carboxylate] | 58 ± 3.9 | 30.9 ± 2.5 | 22.4 ± 1 | – | – | 0.3 | 0.5 | – | – | 0.7 | – | 16.5 ± 0.9 | two-fold | – |
| CC1=CCC2C(C)(C)CCCC2(C)C1CO (stereo not drawn) [Drimenol] | – | – | – | – | > 100 | – | – | > 100 | – | – | – | – | – | inactive |

Now from value to compound, other results behind:

| IC50 [2] [µM] | IC50 [3] [µM] | IC50 [6] [µM] | melting point [°C] | Compound | IC50 [1] [µM] | Selectivity Index (SI) MCF-10/HT-29 [2] | Selectivity Index (SI) MCF-10/PC-3 [3] | IC50 [4] [µM] | IC50 [5] [µM] | Selectivity Index (SI) MCF-10/MCF-7 [6] | IC50 [7] [µM] | IC50 [8] [µM] | caspases-3/7 activity over the control [9] | cytotoxicity ([4]; two cell lines, ref Montenegro et al.) |
| --- | --- | --- | --- | --- | --- | --- | --- | --- | --- | --- | --- | --- | --- | --- |
| > 100 | > 100 | > 100 | – | COc1cc(OC)cc(C(=O)OC[C@H]2C(C)=CCC3C(C)(C)CCC[C@@]32C)c1 (stereo partly drawn) [8a, ((1S,8aS)-2,5,5,8a-tetramethyl-1,4,4a,5,6,7,8,8a-octahydronaphthalen-1-yl)methyl-3,5-dimethoxybenzoate] | – | – | – | – | – | – | – | 44.8 ± 3.1 | – | – |
| > 100 | > 100 | > 100 | – | COc1cc(C(=O)OC[C@H]2C(C)=CCC3C(C)(C)CCC[C@@]32C)cc(OC)c1C (stereo partly drawn) [8b, ((1S,8aS)-2,5,5,8a-tetramethyl-1,4,4a,5,6,7,8,8a-octahydronaphthalen-1-yl)methyl 3,5-dimethoxy-4-methylbenzoate] | – | – | – | – | – | – | – | 21.2 ± 3.1 | – | – |
| > 100 | > 100 | 35.9 ± 6.4 | – | CC1=CCC2C(C)(C)CCC[C@]2(C)[C@H]1COC(=O)c1cc(O)c(C)c(O)c1 (stereo partly drawn) [8c, ((1S,8aS)-2,5,5,8a-tetramethyl-1,4,4a,5,6,7,8,8a-octahydronaphthalen-1-yl)methyl-3,5-dihydroxy-4-methylbenzoate] | – | – | – | – | – | – | – | > 100 | two-fold | – |
| 44.7 ± 6.7 | 33.3 ± 2.9 | 18.4 ± 0.5 | 105 | COc1cc(C(=O)OC[C@H]2C(C)=CCC3C(C)(C)CCC[C@@]32C)cc(OC)c1O (stereo partly drawn) [8d, ((1S,8aS)-2,5,5,8a-tetramethyl-1,4,4a,5,6,7,8,8a-octahydronaphthalen-1-yl)methyl-4-hydroxy-3,5-dimethoxybenzoate] | – | 0.4 | 0.5 | – | – | 0.9 | – | 16.5 ± 0.5 | – | – |
| 51.5 ± 3.2 | 76.9 ± 10.2 | 51 ± 10 | – | COc1cc(C(=O)OC[C@H]2C(C)=CCC3C(C)(C)CCC[C@@]32C)cc(OC)c1OC (stereo partly drawn) [8e, ((1S,8aS)-2,5,5,8a-tetramethyl-1,4,4a,5,6,7,8,8a-octahydronaphthalen-1-yl)methyl-3,4,5-trimethoxybenzoate] | – | 0.6 | 0.4 | – | – | 0.6 | – | 32.1 ± 8.3 | – | – |
| 26.2 ± 5.4 | 7.1 ± 1.1 | 6.2 ± 0.5 | – | COc1ccc(C(=O)OC[C@H]2C(C)=CCC3C(C)(C)CCC[C@@]32C)c(OC)c1OC (stereo partly drawn) [8f, ((1S,8aS)-2,5,5,8a-tetramethyl-1,4,4a,5,6,7,8,8a-octahydronaphthalen-1-yl)methyl-2,3,4-trimethoxybenzoate] | – | – | – | – | – | – | – | 6.8 ± 0.9 | 3.5 fold | – |
| 31.3 ± 2 | 27.7 ± 2.6 | 28.7 ± 3.5 | – | COc1cc(OC)c(C(=O)OC[C@H]2C(C)=CCC3C(C)(C)CCC[C@@]32C)cc1OC (stereo partly drawn) [8g, ((1S,8aS)-2,5,5,8a-tetramethyl-1,4,4a,5,6,7,8,8a-octahydronaphthalen-1-yl)methyl-2,4,5-trimethoxybenzoate] | – | 0.5 | 0.6 | – | – | 0.6 | – | 16.3 ± 0.6 | 3.5 fold | – |

— article PMC10179937, “Cytotoxic Activity, Topoisomerase I Inhibition and In Silico Studies of New Sesquiterpene-aryl Ester Derivatives of (-) Drimenol” (Molecules, 2023)
